Values quoted from earlier work in patent publication US5869538A, “Method for enhancing transport of gases to tissues” (priority 1996, dated 1999).

Details: for Diffusivities / Solubilities: Table 2, simulation parameter

O=C=O [CO2, carbon dioxide]
Diffusivities: 1.05 × 10^-3 cm^2 /min
Solubilities: 2.35 mlml^-1 100 kPa^-1

N#N [N2, nitrogen]
Diffusivities: 1.32 × 10^-3 cm^2 /min

[N-]=[N+]=O [N2O, reference compound]
N2O solubility: 0.45 ml N2 O /ml blood/atm

O=O [O2, oxygen]
Diffusivities: 1.24 × 10^-3 cm^2 /min
Solubilities: 0.0227 mlml^-1 100 kPa^-1
